According to the supplement of paper PMC10307832:

Key:
Experiment in all cases: relative viability (nuclei count vs DMSO), 5 days (fraction); higher = more cells survive
NCI-H1703 = test system: NCI-H1703
Outline: (§1)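 Relative viability equals treated-well nuclei counts divided by vehicle-well nuclei counts. Counts came from 4× images of lung cancer cell lines grown in 1536-well plates for 5 days after pin-tool dosing on the day after seeding. Dosing used one drug alone or a fixed anchor-drug dose plus five library-drug doses (not always all listed) in √10 steps, and values are medians of duplicate plates.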

NCI-H596 = test system: NCI-H596
Outline: as §1

A549 = test system: A549
Outline: as §1

IA-LM = test system: IA-LM
Outline: as §1

EBC-1 = test system: EBC-1
Outline: as §1

Calu-6 = test system: Calu-6
Outline: as §1

NCI-H1299 = test system: NCI-H1299
Outline: as §1

| SMILES | relative viability (NCI-H1703; first compound 0.04 µM) | relative viability (NCI-H1703; first compound 0.1265 µM) | relative viability (NCI-H1703; first compound 0.4 µM) | relative viability (NCI-H1703; first compound 1.265 µM) | relative viability (NCI-H1703; first compound 4 µM) | relative viability (NCI-H596; first compound 0.04 µM) | relative viability (NCI-H596; first compound 0.1265 µM) | relative viability (NCI-H596; first compound 0.4 µM) | relative viability (NCI-H596; first compound 1.265 µM) | relative viability (NCI-H596; first compound 4 µM) | relative viability (A549; first compound 0.04 µM) | relative viability (A549; first compound 0.1265 µM) | relative viability (A549; first compound 0.4 µM) | relative viability (A549; first compound 1.265 µM) | relative viability (A549; first compound 4 µM) | relative viability (IA-LM; first compound 0.04 µM) | relative viability (IA-LM; first compound 0.1265 µM) | relative viability (IA-LM; first compound 0.4 µM) | relative viability (IA-LM; first compound 1.265 µM) | relative viability (IA-LM; first compound 4 µM) | relative viability (EBC-1; first compound 0.04 µM) | relative viability (EBC-1; first compound 0.1265 µM) | relative viability (EBC-1; first compound 0.4 µM) | relative viability (EBC-1; first compound 1.265 µM) | relative viability (EBC-1; first compound 4 µM) | relative viability (Calu-6; first compound 0.04 µM) | relative viability (Calu-6; first compound 0.1265 µM) | relative viability (Calu-6; first compound 0.4 µM) | relative viability (Calu-6; first compound 1.265 µM) | relative viability (Calu-6; first compound 4 µM) | relative viability (NCI-H1299; first compound 0.04 µM) | relative viability (NCI-H1299; first compound 0.1265 µM) | relative viability (NCI-H1299; first compound 0.4 µM) | relative viability (NCI-H1299; first compound 1.265 µM) | relative viability (NCI-H1299; first compound 4 µM) |
| --- | --- | --- | --- | --- | --- | --- | --- | --- | --- | --- | --- | --- | --- | --- | --- | --- | --- | --- | --- | --- | --- | --- | --- | --- | --- | --- | --- | --- | --- | --- | --- | --- | --- | --- | --- |
| Clc1ccc(Nc2nnc(Cc3ccncc3)c3ccccc23)cc1 [Vatalanib] + C[C@@H](Oc1cc(-c2cnn(C3CCNCC3)c2)cnc1N)c1c(Cl)ccc(F)c1Cl [Crizotinib] (partner 1 µM) | 0.669 | 0.77 | 0.866 | 0.524 | 0.303 | 1.05 | 1.02 | 0.884 | 0.955 | 1.16 | 0.857 | 0.843 | 0.907 | 0.597 | 0.713 | 0.649 | 0.875 | 0.724 | 0.743 | 0.721 | 0.218 | 0.178 | 0.176 | 0.191 | 0.21 | 0.756 | 0.662 | 0.779 | 0.779 | 0.643 | 0.956 | 0.96 | 0.957 | 0.964 | 0.965 |
| Clc1ccc(Nc2nnc(Cc3ccncc3)c3ccccc23)cc1 [Vatalanib] + Cc1nc(NC(=O)N2CCC[C@H]2C(N)=O)sc1-c1ccnc(C(C)(C)C(F)(F)F)c1 [Alpelisib] (partner 2 µM) | 0.327 |  | 0.395 | 0.235 | 0.212 | 0.503 | 0.499 | 0.498 | 0.53 | 0.511 | 0.795 | 0.758 | 0.922 | 0.694 | 0.707 | 0.747 | 0.754 | 0.715 | 0.797 | 0.918 | 0.842 | 0.698 | 0.82 | 0.856 | 0.852 | 1.09 | 0.95 | 1.08 | 0.958 | 0.938 | 1.02 | 1.08 | 1.05 | 1.02 | 1.04 |
| Clc1ccc(Nc2nnc(Cc3ccncc3)c3ccccc23)cc1 [Vatalanib] + C[C@]1(O)C[C@@H](c2nc(-c3ccc4ccc(-c5ccccc5)nc4c3)c3c(N)nccn32)C1 [Linsitinib] (partner 1 µM) | 0.804 |  | 1.21 | 0.386 | 0.211 | 1.18 | 1.13 | 0.951 | 1.14 | 1.08 | 0.51 | 0.573 | 0.703 | 0.656 | 0.592 | 0.763 | 0.59 | 0.69 | 0.55 | 0.582 | 1.14 | 0.777 | 0.994 | 0.812 | 0.808 |  | 0.926 | 1.02 | 0.912 | 1.01 | 1.05 | 0.955 | 0.948 | 0.961 | 0.967 |
| COc1cc(N2CCC(C(N)=O)CC2)ccc1Nc1nc(N)c(Cl)c(Nc2ccccc2S(=O)(=O)C(C)C)n1 [HG-5-88-01] + Cc1nc(NC(=O)N2CCC[C@H]2C(N)=O)sc1-c1ccnc(C(C)(C)C(F)(F)F)c1 [Alpelisib] (partner 2 µM) | 0.265 | 0.317 | 0.38 | 0.303 | 0.399 | 0.529 | 0.477 | 0.587 | 0.362 | 0.493 | 0.925 | 0.715 | 0.698 | 0.474 | 0.527 | 0.722 | 1 | 0.627 | 0.447 | 0.503 | 0.876 | 0.98 | 0.795 | 0.768 | 0.86 | 1.02 | 1.01 | 0.908 | 0.856 | 0.885 | 1.04 | 1.09 | 0.972 | 1.05 | 1.12 |
| C[C@@H]1CN(CC(=O)Nc2ccc3c(c2)Cc2cccc(-c4cc(=O)cc(N5CCOCC5)o4)c2S3)C[C@H](C)O1 + C[C@@H](Oc1cc(-c2cnn(C3CCNCC3)c2)cnc1N)c1c(Cl)ccc(F)c1Cl [Crizotinib] (partner 1 µM) | 0.607 | 0.678 | 0.595 |  | 0.513 | 0.934 | 0.928 | 0.983 |  | 0.964 | 0.909 | 0.772 | 0.874 |  | 0.522 | 1.02 | 0.671 | 0.657 |  | 0.36 | 0.202 | 0.203 | 0.201 |  | 0.2 | 0.829 | 0.719 | 0.597 |  | 0.528 | 0.915 | 0.92 | 0.844 |  | 0.837 |
| COc1cc(N2CCC(C(N)=O)CC2)ccc1Nc1nc(N)c(Cl)c(Nc2ccccc2S(=O)(=O)C(C)C)n1 [HG-5-88-01] + CC1(C)CCC(c2ccc(Cl)cc2)=C(CN2CCN(c3ccc(C(=O)NS(=O)(=O)c4ccc(N[C@H](CCN5CCOCC5)CSc5ccccc5)c(S(=O)(=O)C(F)(F)F)c4)cc3)CC2)C1 [Navitoclax] (partner 0.5 µM) | 0.719 | 1.22 | 1.2 | 0.926 | 0.762 | 0.943 | 0.98 | 1.06 | 1.02 | 0.901 | 1.23 | 1.21 | 1.07 | 0.87 | 0.687 | 0.835 | 0.794 | 0.731 | 0.825 | 0.802 | 0.407 | 0.457 | 0.427 | 0.241 | 0.217 | 0.958 | 0.86 | 0.717 | 0.693 | 0.46 | 1.03 | 1.08 | 1.03 | 1.06 | 1.02 |
| C[C@@H]1CN(CC(=O)Nc2ccc3c(c2)Cc2cccc(-c4cc(=O)cc(N5CCOCC5)o4)c2S3)C[C@H](C)O1 + CS(=O)(=O)N1CCN(Cc2cc3nc(-c4cccc5[nH]ncc45)nc(N4CCOCC4)c3s2)CC1 [Pictilisib] (partner 1 µM) | 0.249 | 0.243 | 0.238 |  | 0.205 | 0.386 | 0.417 | 0.404 |  | 0.41 | 0.524 | 0.594 | 0.444 |  | 0.323 | 0.3 | 0.372 | 0.301 |  | 0.234 | 0.487 | 0.412 | 0.244 |  | 0.266 | 0.962 | 0.97 | 0.925 |  | 0.8 | 0.898 | 0.739 | 0.848 |  | 0.689 |
